Source: PubChem BioAssay AID1918954 (Molecular Pharmacology Branch, DTP, NCI, 2023)

System: MDA-MB-468 complex spheroids with HUVEC/MSC, viability
Experiment: Anticancer human tumor MDA-MB-468 cell line growth inhibition;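 note: spheroids exposed to agents for seven days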;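 for viability, T/C: 100% = DMSO vehicle control viability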
Settings: for IC50: curve of first compound; for viability, T/C: stronger effect = lower value; active = viability on the fitted dose curve at most 10% of control; inactive = the rest
Outline: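 Drug combinations with the LSD1 inhibitor iadademstat tested on tumor cells co-cultured as spheroids with endothelial cells and mesenchymal stem cells. Concentrations descended in half-log increments from clinical Cmax or 10 microM.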

[1] = second compound 0.1 µM, first compound 0.000316 µM
[2] = second compound 0.1 µM, first compound 0.001 µM
[3] = second compound 0.1 µM, first compound 0.00316 µM
[4] = second compound 0.1 µM, first compound 0.01 µM
[5] = second compound 0.1 µM, first compound 0.0316 µM
[6] = second compound 0.1 µM, first compound 0.1 µM
[7] = second compound 0.316 µM, first compound 0.000316 µM
[8] = second compound 0.316 µM, first compound 0.001 µM
[9] = second compound 0.316 µM, first compound 0.00316 µM
[10] = second compound 0.316 µM, first compound 0.01 µM
[11] = second compound 0.316 µM, first compound 0.0316 µM
[12] = second compound 0.316 µM, first compound 0.1 µM
[13] = second compound 1 µM, first compound 0.000316 µM
[14] = second compound 1 µM, first compound 0.001 µM
[15] = second compound 1 µM, first compound 0.00316 µM
[16] = second compound 1 µM, first compound 0.01 µM
[17] = second compound 1 µM, first compound 0.0316 µM
[18] = second compound 1 µM, first compound 0.1 µM
[19] = second compound 3.16 µM, first compound 0.000316 µM
[20] = second compound 3.16 µM, first compound 0.001 µM
[21] = second compound 3.16 µM, first compound 0.00316 µM
[22] = second compound 3.16 µM, first compound 0.01 µM
[23] = second compound 3.16 µM, first compound 0.0316 µM
[24] = second compound 3.16 µM, first compound 0.1 µM
[25] = second compound 10 µM, first compound 0.000316 µM
[26] = second compound 10 µM, first compound 0.001 µM
[27] = second compound 10 µM, first compound 0.00316 µM
[28] = second compound 10 µM, first compound 0.01 µM
[29] = second compound 10 µM, first compound 0.0316 µM
[30] = second compound 10 µM, first compound 0.1 µM
[31] = second compound 0.1 µM, first compound 0.00949 µM
[32] = second compound 0.1 µM, first compound 0.03 µM
[33] = second compound 0.1 µM, first compound 0.0949 µM
[34] = second compound 0.1 µM, first compound 0.3 µM
[35] = second compound 0.1 µM, first compound 0.949 µM
[36] = second compound 0.1 µM, first compound 3 µM
[37] = second compound 0.316 µM, first compound 0.00949 µM
[38] = second compound 0.316 µM, first compound 0.03 µM
[39] = second compound 0.316 µM, first compound 0.0949 µM
[40] = second compound 0.316 µM, first compound 0.3 µM
[41] = second compound 0.316 µM, first compound 0.949 µM
[42] = second compound 0.316 µM, first compound 3 µM
[43] = second compound 1 µM, first compound 0.00949 µM
[44] = second compound 1 µM, first compound 0.03 µM
[45] = second compound 1 µM, first compound 0.0949 µM
[46] = second compound 1 µM, first compound 0.3 µM
[47] = second compound 1 µM, first compound 0.949 µM
[48] = second compound 1 µM, first compound 3 µM
[49] = second compound 3.16 µM, first compound 0.00949 µM
[50] = second compound 3.16 µM, first compound 0.03 µM
[51] = second compound 3.16 µM, first compound 0.0949 µM
[52] = second compound 3.16 µM, first compound 0.3 µM
[53] = second compound 3.16 µM, first compound 0.949 µM
[54] = second compound 3.16 µM, first compound 3 µM
[55] = second compound 10 µM, first compound 0.00949 µM
[56] = second compound 10 µM, first compound 0.03 µM
[57] = second compound 10 µM, first compound 0.0949 µM
[58] = second compound 10 µM, first compound 0.3 µM
[59] = second compound 10 µM, first compound 0.949 µM
[60] = second compound 10 µM, first compound 3 µM

CC(C)CC(NC(=O)C(Cc1ccccc1)NC(=O)c1cnccn1)B(O)O (stereo not given) + NC1CC1c1ccc(-c2cccc(O)c2)cc1
< 0.316 nM: IC50 (second compound 0.1 µM) | IC50 (second compound 0.316 µM) | IC50 (second compound 1 µM) | IC50 (second compound 3.16 µM) | IC50 (second compound 10 µM)
active: viability, T/C [1] 5.95% | viability, T/C [2] 0.09% | viability, T/C [3] 0.06% | viability, T/C [4] 0.05% | viability, T/C [5] 0.08% | viability, T/C [6] 0.18% | viability, T/C [7] 6.43% | viability, T/C [8] 0.09% | viability, T/C [9] 0.05% | viability, T/C [10] 0.07% | viability, T/C [11] 0.08% | viability, T/C [12] 0.17% | viability, T/C [13] 5.88% | viability, T/C [14] 0.08% | viability, T/C [15] 0.05% | viability, T/C [16] 0.04% | viability, T/C [17] 0.06% | viability, T/C [18] 0.17% | viability, T/C [19] 5.66% | viability, T/C [20] 0.06% | viability, T/C [21] 0.07% | viability, T/C [22] 0.04% | viability, T/C [23] 0.14% | viability, T/C [24] 0.15% | viability, T/C [25] 3.55% | viability, T/C [26] 0.16% | viability, T/C [27] 0.12% | viability, T/C [28] 0.12% | viability, T/C [29] 0.14% | viability, T/C [30] 0.2%

CC(C)CC(NC(=O)CNC(=O)c1cc(Cl)ccc1Cl)B1OC(=O)CC(CC(=O)O)(C(=O)O)O1 (stereo not given) + NC1CC1c1ccc(-c2cccc(O)c2)cc1
inactive: viability, T/C [1] 111% | viability, T/C [2] 106% | viability, T/C [3] 37.6% | viability, T/C [7] 118% | viability, T/C [8] 94.2% | viability, T/C [9] 39% | viability, T/C [13] 105% | viability, T/C [14] 109% | viability, T/C [15] 41.8% | viability, T/C [19] 106% | viability, T/C [20] 100% | viability, T/C [21] 31.4% | viability, T/C [25] 71.4% | viability, T/C [26] 62.5% | viability, T/C [27] 28.9%
2.74 nM: IC50 (second compound 1 µM)
2.57 nM: IC50 (second compound 0.1 µM)
active: viability, T/C [4] 4.72% | viability, T/C [5] 0.18% | viability, T/C [6] 0.16% | viability, T/C [10] 5.32% | viability, T/C [11] 0.16% | viability, T/C [12] 0.15% | viability, T/C [16] 5.14% | viability, T/C [17] 0.2% | viability, T/C [18] 0.14% | viability, T/C [22] 5.19% | viability, T/C [23] 0.17% | viability, T/C [24] 0.14% | viability, T/C [28] 4% | viability, T/C [29] 0.22% | viability, T/C [30] 0.24%
2.32 nM: IC50 (second compound 3.16 µM)
2.49 nM: IC50 (second compound 0.316 µM)
1.54 nM: IC50 (second compound 10 µM)

COc1cc(Nc2ncc3c(n2)-c2ccc(Cl)cc2C(c2c(F)cccc2OC)=NC3)ccc1C(=O)O + NC1CC1c1ccc(-c2cccc(O)c2)cc1
active: viability, T/C [4] 6.89% | viability, T/C [5] 6.01% | viability, T/C [6] 4.91% | viability, T/C (second compound 0.1 µM, first compound 0.316 µM) 3.38% | viability, T/C (second compound 0.1 µM, first compound 1 µM) 2.48% | viability, T/C [10] 6.72% | viability, T/C [11] 5.86% | viability, T/C [12] 5.06% | viability, T/C (second compound 0.316 µM, first compound 0.316 µM) 3.01% | viability, T/C (second compound 0.316 µM, first compound 1 µM) 2.59% | viability, T/C [16] 7.25% | viability, T/C [17] 5% | viability, T/C [18] 4.96% | viability, T/C (second compound 1 µM, first compound 0.316 µM) 2.88% | viability, T/C (second compound 1 µM, first compound 1 µM) 1.8% | viability, T/C [22] 8% | viability, T/C [23] 5.68% | viability, T/C [24] 5.16% | viability, T/C (second compound 3.16 µM, first compound 0.316 µM) 3.35% | viability, T/C (second compound 3.16 µM, first compound 1 µM) 2.58% | viability, T/C [28] 7.29% | viability, T/C [29] 6.71% | viability, T/C [30] 5.57% | viability, T/C (second compound 10 µM, first compound 0.316 µM) 3.87% | viability, T/C (second compound 10 µM, first compound 1 µM) 4.35%
< 3.16 nM: IC50 (second compound 0.1 µM) | IC50 (second compound 0.316 µM) | IC50 (second compound 1 µM) | IC50 (second compound 3.16 µM) | IC50 (second compound 10 µM)
inactive: viability, T/C [3] 15.5% | viability, T/C [9] 14.5% | viability, T/C [15] 14.1% | viability, T/C [21] 14.1% | viability, T/C [27] 12.6%

NS(=O)(=O)OCC1CC(n2ccc3c(NC4CCc5ccccc54)ncnc32)CC1O (stereo not given) + NC1CC1c1ccc(-c2cccc(O)c2)cc1
active: viability, T/C [33] 9.26% | viability, T/C [34] 5.09% | viability, T/C [35] 2.96% | viability, T/C [36] 2.17% | viability, T/C [40] 5.11% | viability, T/C [41] 3% | viability, T/C [42] 2.26% | viability, T/C [45] 9.67% | viability, T/C [46] 4.9% | viability, T/C [47] 3.15% | viability, T/C [48] 2.38% | viability, T/C [51] 9.14% | viability, T/C [52] 5.23% | viability, T/C [53] 3.44% | viability, T/C [54] 2.31% | viability, T/C [57] 5.43% | viability, T/C [58] 3.74% | viability, T/C [59] 2.55% | viability, T/C [60] 2.05%
11.2 nM: IC50 (second compound 0.316 µM)
11.5 nM: IC50 (second compound 0.1 µM)
inactive: viability, T/C [31] 54.5% | viability, T/C [32] 28.2% | viability, T/C [37] 54.2% | viability, T/C [38] 26.2% | viability, T/C [39] 9.29% | viability, T/C [43] 45.8% | viability, T/C [44] 20.7% | viability, T/C [49] 36.5% | viability, T/C [50] 18.4% | viability, T/C [55] 20.9% | viability, T/C [56] 12.1%
< 9.49 nM: IC50 (second compound 1 µM) | IC50 (second compound 3.16 µM) | IC50 (second compound 10 µM)

Nc1ccccc1NC(=O)c1ccc(CNC(=O)OCc2cccnc2)cc1 + NC1CC1c1ccc(-c2cccc(O)c2)cc1
48.2 nM: IC50 (second compound 10 µM)
56.8 nM: IC50 (second compound 1 µM)
66.3 nM: IC50 (second compound 0.1 µM)
61.8 nM: IC50 (second compound 0.316 µM)
active: viability, T/C [34] 2.33% | viability, T/C [35] 0.21% | viability, T/C [36] 0.17% | viability, T/C [40] 2.63% | viability, T/C [41] 0.2% | viability, T/C [42] 0.15% | viability, T/C [46] 2.4% | viability, T/C [47] 0.19% | viability, T/C [48] 0.13% | viability, T/C [52] 2.56% | viability, T/C [53] 0.16% | viability, T/C [54] 0.14% | viability, T/C [58] 2.72% | viability, T/C [59] 0.24% | viability, T/C [60] 0.2%
60.5 nM: IC50 (second compound 3.16 µM)
inactive: viability, T/C [31] 101% | viability, T/C [32] 90.5% | viability, T/C [33] 31.8% | viability, T/C [37] 90.7% | viability, T/C [38] 86.1% | viability, T/C [39] 28.6% | viability, T/C [43] 108% | viability, T/C [44] 78.6% | viability, T/C [45] 27.5% | viability, T/C [49] 92% | viability, T/C [50] 88% | viability, T/C [51] 25.7% | viability, T/C [55] 72.1% | viability, T/C [56] 68.1% | viability, T/C [57] 24.5%

O=C(C=Cc1cccc(S(=O)(=O)Nc2ccccc2)c1)NO + NC1CC1c1ccc(-c2cccc(O)c2)cc1
26.2 nM: IC50 (second compound 10 µM)
49.8 nM: IC50 (second compound 3.16 µM)
59.9 nM: IC50 (second compound 0.1 µM)
44.2 nM: IC50 (second compound 0.316 µM)
inactive: viability, T/C [31] 88.7% | viability, T/C [32] 74.8% | viability, T/C [33] 25.8% | viability, T/C [34] 2.15% | viability, T/C [35] 0.17% | viability, T/C [36] 106% | viability, T/C [37] 96.3% | viability, T/C [38] 59.3% | viability, T/C [39] 23.1% | viability, T/C [40] 2.07% | viability, T/C [41] 0.17% | viability, T/C [42] 101% | viability, T/C [43] 92.9% | viability, T/C [44] 70.3% | viability, T/C [45] 25.5% | viability, T/C [46] 2.36% | viability, T/C [47] 0.14% | viability, T/C [48] 90.9% | viability, T/C [49] 83.1% | viability, T/C [50] 64.5% | viability, T/C [51] 23% | viability, T/C [52] 2.23% | viability, T/C [53] 0.16% | viability, T/C [54] 101% | viability, T/C [55] 67.7% | viability, T/C [56] 47.7% | viability, T/C [57] 17.7% | viability, T/C [58] 1.86% | viability, T/C [59] 0.19% | viability, T/C [60] 79.1%
53.3 nM: IC50 (second compound 1 µM)
